Laboratory results reported in patent US20240116946A1 (Gilead Sciences, Inc., priority 2022, published 2024).
Like-named read-outs stand apart in the source and are kept apart here.

Columns and labels:
[1] = target: recombinant SARS-CoV-2 Main protease (Mpro) (Severe acute respiratory syndrome coronavirus 2 (2019-nCoV) (SARS-CoV-2), UniProt P0DTD1); assay: Cov Mpro Biochemical IC50 Assay; conditions: recombinant SARS-CoV-2 Mpro 7.5 nM, fluorogenic peptide substrate 40 μM; read-out: MPro IC50
[2] = system: SARS-CoV-2-NLuc; assay: microbe, parasite or virus in culture; format: cell-based, SARS Coronavirus 2
[3] = Severe acute respiratory syndrome coronavirus, 48 h, read-out: MPro EC50
[4] = Severe acute respiratory syndrome coronavirus, 48 h; read-out: MPro EC50

| Compound | IC50 [1] | EC50 [2, 3] | EC50 [2, 4] |
| --- | --- | --- | --- |
| Cn1c(C(F)(F)F)nc2cncc(-n3c(=O)c4sc(-c5ccccc5C#N)cc4n(CCC#N)c3=O)c21 [Example 858] | 263 nM | 741 nM | – |
| COc1cc(-c2cc3c(s2)c(=O)n(-c2cncc4nc(C(F)(F)F)n(C)c24)c(=O)n3CCC#N)c(C#N)cc1F [Example 859] | 62.8 nM | 169 nM | – |
| Cc1nc2cncc(-n3c(=O)c4sc(-c5cc(F)c(F)cc5Cl)cc4n(CCC#N)c3=O)c2n1C [Example 860] | 39.4 nM | 212 nM | – |
| COc1cc(-c2cc3c(s2)c(=O)n(-c2cnccc2C(F)(F)F)c(=O)n3CCC#N)c(Cl)cc1F [Example 861] | 35.8 nM | 68.9 nM | – |
| COc1cc(-c2cc3c(s2)c(=O)n(-c2cnccc2C(F)(F)F)c(=O)n3CCC#N)c(C#N)cc1F [Example 862] | 95.3 nM | 210 nM | – |
| N#CCCn1c(=O)n(-c2cncc(Cl)c2)c(=O)c2sc(-c3ccccc3C#N)cc21 [Example 863] | 13.3 nM | – | 37.6 nM |
| N#CCCn1c(=O)n(-c2cncc(F)c2)c(=O)c2sc(-c3ccccc3C#N)cc21 [Example 864] | 53.2 nM | – | 150 nM |
| COc1cc(-c2cc3c(s2)c(=O)n(-c2cncc(Cl)c2)c(=O)n3CCC#N)c(C#N)cc1F [Example 866] | 5.61 nM | 12.9 nM | – |
| COc1cc(-c2cc3c(=O)n(-c4cncc5ccccc45)c(=O)n(CCC#N)c3s2)c(Cl)cc1F [Example 867] | 9.82 nM | 13.1 nM | – |
| COc1cc(-c2cc3c(s2)c(=O)n(-c2cncc(C#N)c2C)c(=O)n3CCC#N)c(Cl)cc1F [Example 868] | 9.86 nM | 26.1 nM | – |
| COc1cc(-c2cc3c(s2)c(=O)n(-c2cncc(C(F)(F)F)c2)c(=O)n3CCC#N)c(Cl)cc1F [Example 869] | 23.9 nM | 73 nM | – |
| COc1cncc(-n2c(=O)c3sc(-c4cc(OC)c(F)cc4Cl)cc3n(CCC#N)c2=O)c1 [Example 870] | 2.89 nM | 3.41 nM | – |
| COc1cc(-c2cc3c(s2)c(=O)n(-c2cncc(OC)c2C)c(=O)n3CCC#N)c(Cl)cc1F [Example 871] | 75.3 nM | 220 nM | – |
| COc1cc(-c2cc3c(s2)c(=O)n(-c2cncc(OC(F)F)c2)c(=O)n3CCC#N)c(Cl)cc1F [Example 872] | 8.39 nM | 37.3 nM | – |
| COc1cc(-c2cc3c(s2)c(=O)n(-c2cncc(N4CCOCC4)c2)c(=O)n3CCC#N)c(Cl)cc1F [Example 873] | 263 nM | > 1000 nM | – |
| COc1cc(-c2cc3c(s2)c(=O)n(-c2cncc(N(C)C)c2)c(=O)n3CCC#N)c(Cl)cc1F [Example 874] | 41.4 nM | 204 nM | – |
| Cc1cncc(-n2c(=O)c3sc(-c4ccccc4C#N)cc3n(CCC#N)c2=O)c1 [Example 875] | 9.81 nM | – | 32.4 nM |
| COc1cc(-c2cc3c(s2)c(=O)n(-c2cncc(C)c2)c(=O)n3CCC#N)c(C#N)cc1F [Example 876] | 2.76 nM | 6.25 nM | – |
| Cn1nnc2cncc(-n3c(=O)c4sc(-c5ccccc5C#N)cc4n(CCC#N)c3=O)c21 [Example 877] | 54.1 nM | 216 nM | – |

| Compound | IC50 [1] | EC50 [2, 3] | EC50 [2, 4] |
| --- | --- | --- | --- |
| COc1cc(-c2cc3c(s2)c(=O)n(-c2cncc4nnn(C)c24)c(=O)n3CCC#N)c(C#N)cc1F [Example 878] | 15.8 nM | 90 nM | – |
| Cc1cncc(-n2c(=O)c3sc(-c4cc(Cl)ccc4C#N)cc3n(CCC#N)c2=O)c1 [Example 879] | 4.33 nM | – | 20.4 nM |
| Cc1cncc(-n2c(=O)c3sc(-c4ccc(F)cc4C#N)cc3n(CCC#N)c2=O)c1 [Example 880] | 10.6 nM | – | 42.3 nM |
| Cc1cncc(-n2c(=O)c3sc(-c4cc(F)ccc4C#N)cc3n(CCC#N)c2=O)c1 [Example 881] | 11.7 nM | – | 91.9 nM |
| C#Cc1cc(F)c(OC)cc1-c1cc2c(s1)c(=O)n(-c1cncc3nnn(C4CC4)c13)c(=O)n2CCC#N [Example 882] | 26.3 nM | 69.7 nM | – |
| N#CCCn1c(=O)n(-c2cncc3nnn(C4CC4)c23)c(=O)c2sc(-c3ccc(F)cc3Cl)cc21 [Example 883] | 30.3 nM | 233 nM | – |
| COc1cnc(Cl)c(-c2cc3c(s2)c(=O)n(-c2cncc4nnn(C)c24)c(=O)n3CCC#N)c1 [Example 884] | 31.4 nM | 126 nM | – |
| COc1cnc(Cl)c(-c2cc3c(s2)c(=O)n(-c2cncc(C)c2)c(=O)n3CCC#N)c1 [Example 885] | 7.57 nM | – | 22.9 nM |
| Cn1nnc2cncc(-n3c(=O)c4sc(-c5cc(Cl)ccc5C#N)cc4n(CCC#N)c3=O)c21 [Example 886] | 36.1 nM | 144 nM | – |
| COc1cnc(C#N)c(-c2cc3c(s2)c(=O)n(-c2cncc(C)c2)c(=O)n3CCC#N)c1 [Example 887] | 10.4 nM | – | 65.4 nM |
| N#CCCn1c(=O)n(-c2cncc(C(F)F)c2)c(=O)c2sc(-c3ccccc3C#N)cc21 [Example 888] | 25.8 nM | – | 91.5 nM |
| COc1cnc(Cl)c(-c2cc3c(s2)c(=O)n(-c2cncc(C(F)F)c2)c(=O)n3CCC#N)c1 [Example 889] | 14.2 nM | – | 64.8 nM |
| N#CCCn1c(=O)n(-c2cncc(C(F)(F)F)c2)c(=O)c2sc(-c3ccccc3C#N)cc21 [Example 890] | 75 nM | – | 247 nM |
| COc1cc(-c2cc3c(s2)c(=O)n(-c2cnc(F)c(C)c2)c(=O)n3CCC#N)c(Cl)cc1F [Example 891] | 9.38 nM | 29.6 nM | – |
| COc1cc(-c2cc3c(s2)c(=O)n(-c2nncc4c(C)nn(C)c24)c(=O)n3CCC#N)c(Cl)cc1F [Example 892] | 13.5 nM | 32.9 nM | – |
| COc1cc(-c2cc3c(s2)c(=O)n(-c2cnccn2)c(=O)n3CCC#N)c(Cl)cc1F [Example 893] | 22.1 nM | 136 nM | – |
| COc1cc(-c2cc3c(s2)c(=O)n(-c2cncc(C)n2)c(=O)n3CCC#N)c(Cl)cc1F [Example 894] | 3.2 nM | 6.55 nM | – |
| COc1cc(-c2cc3c(s2)c(=O)n(-c2cncc4nn(C)c(C)c24)c(=O)n3CCC#N)c(C#N)cc1F [Example 895] | 8.43 nM | 218 nM | – |
| Cc1c2c(-n3c(=O)c4sc(-c5ccccc5C#N)cc4n(CCC#N)c3=O)cncc2nn1C [Example 896] | 59.2 nM | – | 479 nM |

| Compound | IC50 [1] | EC50 [2, 3] | EC50 [2, 4] |
| --- | --- | --- | --- |
| COc1cc(-c2ccc3c(=O)n(-c4cncc5ccccc45)c(=O)n(CC#N)c3c2)c(Cl)cc1F [Example 897] | 11.2 nM | 85.4 nM | – |
| COc1cc(-c2cc3c(s2)c(=O)n(-c2cncc4cnn(C)c24)c(=O)n3C)c(Cl)cc1F [Example 898, 6-(2-chloro-4-fluoro-5-methoxyphenyl)-1-methyl-3-(1-methyl-1H-pyrazolo[4,3-c]pyridin-7-yl)thieno[3,2-d]pyrimidine-2,4(1H,3H)-dione] | 13 nM | 11.9 nM | – |
| COc1cc(-c2cc3c(s2)c(=O)n(-c2cncc4cccc(F)c24)c(=O)n3CCC#N)c(Cl)cc1F [Example 901, 3-(6-(2-chloro-4-fluoro-5-methoxyphenyl)-3-(5-fluoroisoquinolin-4-yl)-2,4-dioxo-3,4-dihydrothieno[3,2-d]pyrimidin-1(2H)-yl)propanenitrile] | 2.53 nM | 5.16 nM | – |
| COc1ccc(C#N)c(-c2cc3c(cc2F)c(=O)n(-c2cncc4ccccc24)c(=O)n3CCC#N)c1 [Example 902] | 87.3 nM | 134 nM | – |
| COc1cc(-c2nc3c(s2)c(=O)n(-c2cncc4ccccc24)c(=O)n3CCC#N)c(Cl)cc1F [Example 903] | 8.52 nM | 13.1 nM | – |
| COc1cc(-c2cc3c(s2)c(=O)n(-c2cncc4cccnc24)c(=O)n3CCC#N)c(Cl)cc1F [Example 904, 3-(6-(2-chloro-4-fluoro-5-methoxyphenyl)-3-(1,6-naphthyridin-8-yl)-2,4-dioxo-3,4-dihydrothieno[3,2-d]pyrimidin-1(2H)-yl)propanenitrile] | 4.29 nM | 1.34 nM | – |
| N#CCCn1c(=O)n(-c2cncc3cccnc23)c(=O)c2sc(-c3ccccc3Cl)cc21 [Example 905] | 5.93 nM | 4.17 nM | – |
| COc1cc(-c2cc3c(s2)c(=O)n(-c2cncc4ccc(C)nc24)c(=O)n3CCC#N)c(Cl)cc1F [Example 906] | 4.35 nM | 2.41 nM | – |
| Cc1ccc2cncc(-n3c(=O)c4sc(-c5ccccc5Cl)cc4n(CCC#N)c3=O)c2n1 [Example 907] | 5.81 nM | 6.97 nM | – |
| COc1cc(-c2cc3c(s2)c(=O)n(-c2cncc4c2CCCC4)c(=O)n3CCC#N)c(Cl)cc1F [Example 908] | 7.52 nM | 6.84 nM | – |
| COc1cc(-c2cc3c(s2)c(=O)n(-c2cncc4nn(C)cc24)c(=O)n3CCC#N)c(Cl)cc1F [Example 909] | 5.94 nM | 12.3 nM | – |
| CCn1ncc2cncc(-n3c(=O)c4sc(-c5cc(OC)c(F)cc5Cl)cc4n(CCC#N)c3=O)c21 [Example 910] | 4.34 nM | 4.35 nM | – |
| COc1cc(-c2cc3c(s2)c(=O)n(-c2cncc4cnn(CC(F)F)c24)c(=O)n3CCC#N)c(Cl)cc1F [Example 911] | 13.2 nM | 11.8 nM | – |
| COCCn1ncc2cncc(-n3c(=O)c4sc(-c5cc(OC)c(F)cc5Cl)cc4n(CCC#N)c3=O)c21 [Example 912] | 4.9 nM | 4.36 nM | – |
| CCn1cc2cncc(-n3c(=O)c4sc(-c5cc(OC)c(F)cc5Cl)cc4n(CCC#N)c3=O)c2n1 [Example 913] | 4.31 nM | 4.53 nM | – |
| COCCn1cc2cncc(-n3c(=O)c4sc(-c5cc(OC)c(F)cc5Cl)cc4n(CCC#N)c3=O)c2n1 [Example 914] | 4.76 nM | 10.9 nM | – |
| COc1cc(-c2cc3c(s2)c(=O)n(-c2cncc4ncccc24)c(=O)n3CCC#N)c(Cl)cc1F [Example 915] | 8.9 nM | 19.4 nM | – |
| COc1cc(-c2cc3c(s2)c(=O)n(-c2c(C)ccnc2F)c(=O)n3CCC#N)c(Cl)cc1F [Example 916] | 11.5 nM | 30.3 nM | – |
